Test results: US10470993B2, “Tooth remineralization compositions and methods” (priority 2013, dated 2019)

Tested on: S. mutans
Assay type: cell-based
Procedure: Chitosan is a known antimicrobial. The antimicrobial activities of chitosans were determined with XTT assay based on the measurement of bacterial metabolic activities. The bacteria include S. sanguis, S. fecalis, and S. mutans. […] The metabolic activity and viability of S. mutans was decreased with the increase of the molecular weight of chitosan from 1K to 10K, as shown in FIG. 3. […] The relative viability of S. mutans treated with chitosan 10K was only about 10% as compared to the control. […] The chitosan with molecular weight of 10K reached the greatest inhibition effect against S. mutans in our XTT assay.
The antimicrobial activity of chitosan 10K was tested on three different oral bacteria which are major bacteria responsible for the occurrence of dental caries. […] The antimicrobial effects are concentration dependent and increased with increased chitosan concentration.

Substance	relative viability of S. mutans as compared to the control
chitosan [chitosan 5K]	55%
chitosan [chitosan 10K]	about 10%
